The supplement of paper PMC10307832

Key:
Assay in all cases: relative viability (nuclei count vs DMSO), 5 days (fraction); higher = more cells survive
ChaGo-K-1 = test system: ChaGo-K-1
Summary of the method: (§1)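 Lung cancer cell lines were pin-tool dosed in 1536-well plates on the day after seeding, with either a lone drug or a fixed anchor-drug dose plus five library-drug doses (not always all listed) in √10 steps. Nuclei were counted on 4× images after 5 days. Relative viability is the ratio of treated-well to vehicle-well nuclei counts, with each value a median of duplicate plates.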

EKVX = test system: EKVX
Summary of the method: as §1

EMC-BAC-2 = test system: EMC-BAC-2
Summary of the method: as §1

H3255 = test system: H3255
Summary of the method: as §1

HARA = test system: HARA
Summary of the method: as §1

HCC-15 = test system: HCC-15
Summary of the method: as §1

HCC-827 = test system: HCC-827
Summary of the method: as §1

LC-2-ad = test system: LC-2-ad
Summary of the method: as §1

LCLC-97TM1 = test system: LCLC-97TM1
Summary of the method: as §1

LU99A = test system: LU99A
Summary of the method: as §1

NCI-H1437 = test system: NCI-H1437
Summary of the method: as §1

NCI-H1792 = test system: NCI-H1792
Summary of the method: as §1

NCI-H1793 = test system: NCI-H1793
Summary of the method: as §1

NCI-H1915 = test system: NCI-H1915
Summary of the method: as §1

NCI-H1944 = test system: NCI-H1944
Summary of the method: as §1

NCI-H2126 = test system: NCI-H2126
Summary of the method: as §1

NCI-H23 = test system: NCI-H23
Summary of the method: as §1

NCI-H322M = test system: NCI-H322M
Summary of the method: as §1

NCI-H441 = test system: NCI-H441
Summary of the method: as §1

NCI-H460 = test system: NCI-H460
Summary of the method: as §1

NCI-H522 = test system: NCI-H522
Summary of the method: as §1

NCI-H661 = test system: NCI-H661
Summary of the method: as §1

PC-3 [JPC-3] = test system: PC-3 [JPC-3]
Summary of the method: as §1

SK-LU-1 = test system: SK-LU-1
Summary of the method: as §1

SW 900 = test system: SW 900
Summary of the method: as §1

CCCCCCCCCCCC1=C(O)C(=O)C=C(O)C1=O [Embelin] + CCNC(=O)c1noc(-c2cc(C(C)C)c(O)cc2O)c1-c1ccc(CN2CCOCC2)cc1 [Luminespib] (partner 0.01 µM)
relative viability (ChaGo-K-1; first compound 0.08 µM): 0.529
relative viability (ChaGo-K-1; first compound 0.8 µM): 0.755
relative viability (ChaGo-K-1; first compound 2.53 µM): 0.776
relative viability (ChaGo-K-1; first compound 8 µM): 0.587
relative viability (EKVX; first compound 0.08 µM): 0.864
relative viability (EKVX; first compound 0.8 µM): 0.888
relative viability (EKVX; first compound 2.53 µM): 0.876
relative viability (EKVX; first compound 8 µM): 0.966
relative viability (EMC-BAC-2; first compound 0.08 µM): 1.14
relative viability (EMC-BAC-2; first compound 0.8 µM): 1.38
relative viability (EMC-BAC-2; first compound 2.53 µM): 1.22
relative viability (EMC-BAC-2; first compound 8 µM): 1.29
relative viability (H3255; first compound 0.08 µM): 0.848
relative viability (H3255; first compound 0.8 µM): 0.954
relative viability (H3255; first compound 2.53 µM): 0.935
relative viability (H3255; first compound 8 µM): 0.965
relative viability (HARA; first compound 0.08 µM): 0.832
relative viability (HARA; first compound 0.8 µM): 0.919
relative viability (HARA; first compound 2.53 µM): 0.987
relative viability (HARA; first compound 8 µM): 0.821
relative viability (HCC-15; first compound 0.08 µM): 0.243
relative viability (HCC-15; first compound 0.8 µM): 0.299
relative viability (HCC-15; first compound 2.53 µM): 0.3
relative viability (HCC-15; first compound 8 µM): 0.302
relative viability (HCC-827; first compound 0.08 µM): 0.857
relative viability (HCC-827; first compound 0.8 µM): 0.885
relative viability (HCC-827; first compound 2.53 µM): 0.864
relative viability (HCC-827; first compound 8 µM): 0.657
relative viability (LC-2-ad; first compound 0.08 µM): 0.892
relative viability (LC-2-ad; first compound 0.8 µM): 1.28
relative viability (LC-2-ad; first compound 2.53 µM): 1.1
relative viability (LC-2-ad; first compound 8 µM): 0.806
relative viability (LCLC-97TM1; first compound 0.08 µM): 0.78
relative viability (LCLC-97TM1; first compound 0.8 µM): 0.899
relative viability (LCLC-97TM1; first compound 2.53 µM): 0.907
relative viability (LCLC-97TM1; first compound 8 µM): 0.872
relative viability (LU99A; first compound 0.08 µM): 0.273
relative viability (LU99A; first compound 0.8 µM): 0.275
relative viability (LU99A; first compound 2.53 µM): 0.28
relative viability (LU99A; first compound 8 µM): 0.279
relative viability (NCI-H1437; first compound 0.08 µM): 1.17
relative viability (NCI-H1437; first compound 0.8 µM): 1.17
relative viability (NCI-H1437; first compound 2.53 µM): 1.08
relative viability (NCI-H1437; first compound 8 µM): 0.622
relative viability (NCI-H1792; first compound 0.08 µM): 0.363
relative viability (NCI-H1792; first compound 0.8 µM): 0.515
relative viability (NCI-H1792; first compound 2.53 µM): 0.46
relative viability (NCI-H1792; first compound 8 µM): 0.516
relative viability (NCI-H1793; first compound 0.08 µM): 0.175
relative viability (NCI-H1793; first compound 0.8 µM): 0.192
relative viability (NCI-H1793; first compound 2.53 µM): 0.207
relative viability (NCI-H1793; first compound 8 µM): 0.186
relative viability (NCI-H1915; first compound 0.08 µM): 0.818
relative viability (NCI-H1915; first compound 0.8 µM): 0.819
relative viability (NCI-H1915; first compound 2.53 µM): 0.853
relative viability (NCI-H1915; first compound 8 µM): 0.892
relative viability (NCI-H1944; first compound 0.08 µM): 0.726
relative viability (NCI-H1944; first compound 0.8 µM): 0.849
relative viability (NCI-H1944; first compound 2.53 µM): 0.882
relative viability (NCI-H1944; first compound 8 µM): 0.78
relative viability (NCI-H2126; first compound 0.08 µM): 0.838
relative viability (NCI-H2126; first compound 0.8 µM): 1.01
relative viability (NCI-H2126; first compound 2.53 µM): 0.965
relative viability (NCI-H2126; first compound 8 µM): 0.927
relative viability (NCI-H23; first compound 0.08 µM): 0.228
relative viability (NCI-H23; first compound 0.8 µM): 0.212
relative viability (NCI-H23; first compound 2.53 µM): 0.221
relative viability (NCI-H23; first compound 8 µM): 0.232
relative viability (NCI-H322M; first compound 0.08 µM): 0.951
relative viability (NCI-H322M; first compound 0.8 µM): 1.04
relative viability (NCI-H322M; first compound 2.53 µM): 1.19
relative viability (NCI-H322M; first compound 8 µM): 0.83
relative viability (NCI-H441; first compound 0.08 µM): 0.32
relative viability (NCI-H441; first compound 0.8 µM): 0.294
relative viability (NCI-H441; first compound 2.53 µM): 0.332
relative viability (NCI-H441; first compound 8 µM): 0.33
relative viability (NCI-H460; first compound 0.08 µM): 0.0322
relative viability (NCI-H460; first compound 0.8 µM): 0.0396
relative viability (NCI-H460; first compound 2.53 µM): 0.0367
relative viability (NCI-H460; first compound 8 µM): 0.029
relative viability (NCI-H522; first compound 0.08 µM): 1.26
relative viability (NCI-H522; first compound 0.8 µM): 1.2
relative viability (NCI-H522; first compound 2.53 µM): 1.34
relative viability (NCI-H522; first compound 8 µM): 1.12
relative viability (NCI-H661; first compound 0.08 µM): 0.924
relative viability (NCI-H661; first compound 0.8 µM): 1
relative viability (NCI-H661; first compound 2.53 µM): 0.897
relative viability (NCI-H661; first compound 8 µM): 0.85
relative viability (PC-3 [JPC-3]; first compound 0.08 µM): 0.798
relative viability (PC-3 [JPC-3]; first compound 0.8 µM): 0.752
relative viability (PC-3 [JPC-3]; first compound 2.53 µM): 0.724
relative viability (PC-3 [JPC-3]; first compound 8 µM): 0.599
relative viability (SK-LU-1; first compound 0.08 µM): 0.206
relative viability (SK-LU-1; first compound 0.8 µM): 0.186
relative viability (SK-LU-1; first compound 2.53 µM): 0.182
relative viability (SK-LU-1; first compound 8 µM): 0.204
relative viability (SW 900; first compound 0.08 µM): 0.196
relative viability (SW 900; first compound 0.8 µM): 0.138
relative viability (SW 900; first compound 2.53 µM): 0.188
relative viability (SW 900; first compound 8 µM): 0.18
